According to article PMC3960879 (Biology, 2013):

How the values were obtained:
[1] = system: F17fG lectin domain; experiment: CFG mammalian printed glycan array version 2 (experiment 400), F17fG; format: binding, Escherichia coli; details: CFG glycan array version 2; F17G at 200 µg/mL; SEM in parentheses
Description: (§1) The slide was dried under a stream of nitrogen.

[2] = molecular target: F17aG lectin domain (Escherichia coli, UniProt Q99003); details: CFG glycan array version 2; F17G at 200 µg/mL; SEM in parentheses
F17aG lectin domain, sequence (Q99003 23-199): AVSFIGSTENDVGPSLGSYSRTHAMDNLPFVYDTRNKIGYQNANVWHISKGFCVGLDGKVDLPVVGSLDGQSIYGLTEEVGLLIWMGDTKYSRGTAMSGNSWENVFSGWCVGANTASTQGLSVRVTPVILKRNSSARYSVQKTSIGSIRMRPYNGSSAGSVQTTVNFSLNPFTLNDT
Description: (§2) A microarray presenting 264 different glycans (mammalian printed array version 2) was used to evaluate if the F17G variant lectin domains differ in the range of glycan receptors that they recognize, thereby establishing tropism. The microarray was set up within the Consortium for Functional Glycomics (CFG) ([20], and supplemental data). Binding of F17G (200 µg/mL) was detected using anti-F17G polyclonal rabbit IgG (10 µg/mL), followed by fluorescently labelled goat anti-rabbit polyclonal antibodies (IgG-488, 5 µg/mL).
(§3) A microarray presenting 264 different glycans (mammalian printed array version 2 from the CFG, experiment 400) was used to evaluate whether the F17G variant lectin domains differ in the range of glycan receptors that they can recognize, thereby establishing strain-dependent tropism. […] The glycan array screening has been repeated for F17aG only on printed array version 4.1 (experiment 2053) (Figure 1).
(§4) Printed array version 2 at the Consortium for Functional Glycomics was used for glycan array screening of the variant F17G receptor binding domains. Slides were printed, with six replicates for each glycan, using glycan spotting concentrations of 100 μM, at the Consortium Carbohydrate Synthesis/Protein Expression Core D located at the Scripps Research Institute onto Schott Nexterion H slides (Schott Cat. No. 1070936B). Slide conditioning: preprinted slides were soaked in deionized water for 5 minutes at room temperature and dried under a stream of nitrogen. TSM buffer (20 mM Tris-HCl, pH 7.4, or MOPS 20 mM; 150 mM NaCl; 2 mM CaCl2, 2 mM MgCl2) was used as wash buffer (TSM buffer + 0.05% Tween 20) or binding buffer (TSM buffer + 0.05% Tween 20 + 1% BSA). (1) F17G was diluted to 200 μg/mL (Figure 1) in TSM binding buffer. (2) 50 μL of F17G was applied to the printed surface and coverslipped. (3) The slide was incubated, protected from light, in a humidified chamber for 1 hour at RT. (4) The slide was washed once in TSM wash buffer. 50 μL of the anti-F17G (10 μg/mL) polyclonal rabbit IgG were applied, coverslipped and incubated for 1 h at RT. (5) The slide was washed once in TSM wash buffer. Fifty μL of fluorescently labelled secondary goat anti-rabbit polyclonal antibodies (IgG-488, 5 µg/mL) were applied, coverslipped and incubated for 1 h at RT. (6) Slide was removed, followed by the coverslip, and washed for 10 s each in TSM wash buffer, TSM wash buffer lacking Tween 20, and deionized water. The slide was dried under a stream of nitrogen. (7) The binding image was read in a Perkin Elmer Microscanarray XL4000 scanner and tiff file of image stored. (8) Image analysis was performed using Imagene (V.6) image analysis software. (9) Raw data results files were generated in Excel format and uploaded to the Consortium database as .dat files. (10) Imagene data was uploaded to the database as .txt files.

[3] = molecular target: F17bG lectin domain (Escherichia coli, UniProt Q47200); details: CFG glycan array version 2; F17G at 200 µg/mL; SEM in parentheses
F17bG lectin domain, sequence (Q47200 23-199): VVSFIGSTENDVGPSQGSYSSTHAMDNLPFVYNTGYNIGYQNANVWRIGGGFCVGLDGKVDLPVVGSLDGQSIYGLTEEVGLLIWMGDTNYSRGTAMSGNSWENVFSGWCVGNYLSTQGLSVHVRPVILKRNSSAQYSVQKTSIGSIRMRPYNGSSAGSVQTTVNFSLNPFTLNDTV
Description: as §2, §3, §4

[4] = molecular target: F17dG lectin domain (Escherichia coli, UniProt Q47199); details: CFG glycan array version 2; F17G at 200 µg/mL; SEM in parentheses
F17dG lectin domain, sequence (Q47199 23-199): as the sequence (Q99003 23-199) above, with L16P, D33N, R35G, K37N, H47R, K90N counted along it
Description: as §2, §3, §4

[5] = system: F17eG lectin domain; experiment: CFG mammalian printed glycan array version 2 (experiment 400), F17eG; format: binding, Escherichia coli; details: CFG glycan array version 2; F17G at 200 µg/mL; SEM in parentheses
Description: as §1

[6] = molecular target: T1, F17aG receptor-binding domain (Escherichia coli, UniProt Q99003); experiment: biochemical; details: SPR steady state, 25 °C, pH 7.4; read-out: Affinity range (Kd class), F17aG
T1 construct: variants of the lectin domains with oligolysine (4Lys) tails have been constructed; made in house; host or cells: E. coli (periplasm)
T1 sequence (Q99003 23-199): as the sequence (Q99003 23-199) above
Description: The affinity profiles were determined by surface plasmon resonance (SPR) measurements using a BiaCore 3000 instrument (GE Healthcare). […] The proteins were covalently immobilized on CM5 sensor chips (Biacore AB) to an average density of 2000 RU (resonance units in pg/mm^2). On each chip, one flow cell was coated with a camel single domain antibody for use as a reference cell. The other three flow cells (Fc2, Fc3 and Fc4) were coated with three different F17G variants. Carbohydrate concentrations ranging from 10 µM to 10 mM in running buffer (20 mM Hepes, pH 7.4; 150 mM NaCl; 3 mM EDTA and 0.005% surfactant Tween 20) were incubated for one minute on all flow cells simultaneously, at 25 °C and at a flow rate of 30 µL/min. Complete dissociation of the carbohydrates in running buffer was verified before starting a new binding cycle. All binding cycles were performed in duplicate, including a zero concentration cycle (injection of pure running buffer). All analysis was done using the BIAeval software. In each case the equilibrium resonance signal from the reference cell was subtracted from that of the various F17G flow cells (2-1, 3-1, 4-1). A Langmuir binding isotherm with a 1:1 stoichiometry was fitted to the data, from which the equilibrium dissociation constants, Kd, were obtained.

| Compound | Relative Fluorescence Units (RFU), averaged over six replicates, F17fG [1] | Relative Fluorescence Units (RFU), averaged over six replicates, F17aG [2] | Relative Fluorescence Units (RFU), averaged over six replicates, F17bG [3] | Relative Fluorescence Units (RFU), averaged over six replicates, F17dG [4] | Relative Fluorescence Units (RFU), averaged over six replicates, F17eG [5] | Kd [6] [mM] |
| --- | --- | --- | --- | --- | --- | --- |
| GlcNAcβ1,4(GlcNAcβ1,6)GalNAcα-Sp8 | 19,830 (4,279) RFU | 4,520 (2,808) RFU | 12,960 (1,692) RFU | 1,680 (92) RFU | 38,200 (2,394) RFU | – |
| GlcNAcβ1,6GalNAcα-Sp8 | 26,522 (11,365) RFU | 11,120 (1,871) RFU | 6,683 (947) RFU | 2,432 (406) RFU | 43,848 (4,140) RFU | – |
| GlcNAcβ1,6Galβ1,4GlcNAcβ-Sp8 | 2,269 (561) RFU | 9,029 (1,096) RFU | 5,372 (746) RFU | 5,119 (1,633) RFU | 40,973 (6,555) RFU | – |
| CC(=O)N[C@H]1[C@H](OCCCN)O[C@H](CO)[C@@H](O[C@@H]2O[C@H](CO[C@@H]3O[C@H](CO)[C@@H](O)[C@H](O)[C@H]3NC(C)=O)[C@H](O)[C@H](O[C@@H]3O[C@H](CO)[C@@H](O)[C@H](O)[C@H]3NC(C)=O)[C@H]2O)[C@@H]1O [GlcNAcβ1,3(GlcNAcβ1,6)Galβ1,4GlcNAcβ-Sp8] | 37,083 (5,973) RFU | 44,391 (3,949) RFU | 21,630 (2,490) RFU | 17,195 (3,442) RFU | 41,907 (4,694) RFU | – |
| GlcNAcβ1,4Galβ1,4GlcNAcβ-Sp8 | 7,176 (2,338) RFU | 12,499 (1,921) RFU | 13,001 (2,039) RFU | 1,056 (190) RFU | 39,794 (6,245) RFU | – |
| COc1ccc(O[C@@H]2O[C@H](CO)[C@@H](O[C@@H]3O[C@H](CO)[C@H](O)[C@H](O)[C@H]3NC(C)=O)[C@H](O)[C@H]2NC(C)=O)cc1 [GalNAcβ1,4GlcNAcβ1-methoxy phenyl] | – | – | – | – | – | 1 to 10 |
| GlcNAcβ1,3Galβ1,4GlcNAcβ1,3Galβ1,4GlcNAcβ-Sp0 | 4,334 (856) RFU | 10,917 (811) RFU | 7,563 (2,744) RFU | 3,599 (772) RFU | 43,425 (4,065) RFU | – |
| CC(=O)N[C@H]1[C@H](OCCCN)O[C@H](CO)[C@@H](O[C@@H]2O[C@H](CO)[C@@H](O[C@@H]3O[C@H](CO)[C@@H](O)[C@H](O)[C@H]3NC(C)=O)[C@H](O)[C@H]2NC(C)=O)[C@@H]1O [GlcNAcβ1,4GlcNAcβ1,4GlcNAcβ-Sp8] | 2,418 (613) RFU | 848 (88) RFU | 2,860 (706) RFU | 1,690 (251) RFU | 5,689 (1,085) RFU | – |
| Neu5Acα2,3(Neu5Acα2,6)GalNAcα-Sp8 | 1,717 (229) RFU | 4,527 (4,043) RFU | 4,331 (1,760) RFU | 1,388 (1,162) RFU | 1,229 (1,162) RFU | – |
| GlcNAcβ1-3Galβ1,4GlcNAcβ-Sp8 | 28,888 (6,925) RFU | 51,880 (5,023) RFU | 15,483 (1,729) RFU | 17,991 (4,401) RFU | 49,223 (5,377) RFU | – |
